Reference: PMC10222839, “Development of Novel Small-Molecule Activators of Pyruvate Kinase Muscle Isozyme 2, PKM2, to Reduce Photoreceptor Apoptosis” (Pharmaceuticals, 2023)

How the values were obtained:
[1] = tested on: caspase 8 activation in 661W cells; experiment: Caspase 8 activity assay in 661W cells (Caspase-Glo 8); type: cell-based
Experimental: To be confident the pyridazinoindolone core could be utilized in future medicinal chemistry efforts, its photoreceptor neuroprotective effect was assessed. […] Fas signaling has a critical role in caspase activation and photoreceptor apoptosis after experimental retinal detachment. 661W cells die via caspase-mediated mechanisms, and the Fas-ligand (FasL) treatment of these cells leads to the activation of caspases and subsequent death, analogous to the in vivo experimental retinal detachment model. Furthermore, similar to photoreceptors, 661W cells express PKM2 (Figure 4a), and these cells have been used to garner information on the role of metabolism in photoreceptor degeneration. As such, this is a suitable in vitro model of photoreceptor stress that can be utilized to assess the consequences of reprogramming metabolism by pharmacologically activating PKM2 [9]. 661W cells were treated with FasL and either compound 2 or vehicle (DMSO).
Caspase 8 and caspase 3/7 activity was measured using luminescent assay kits (Caspase-Glo 8 and 3/7 Assay Systems, Promega, Madison, WI, USA, Cat Nos. G8200 and G8090, respectively). […] As previously published, caspase activity was measured 8 h after treatment by incubating cells with substrate for 1 h as per the manufacturer’s instructions. A plate reader luminometer (BMG Labtech, Inc., Cary, NC, USA) assessed luminescence.

[2] = tested on: cleaved caspase-8-positive cells in the retina; experiment: Experimental retinal detachment, flow cytometry of cleaved caspase 8; type: in vivo; conditions: rat retinal detachment, highest dose tested (1 mM final vitreous), intravitreal, 3 days, versus DMSO
Description: Caspase activation, including caspase 8, increases 3 days status post experimental retinal detachment and has been validated to be a marker of photoreceptor apoptosis and the extent of retinal-detachment-induced photoreceptor cell death. Additionally, this caspase activation coincides with the peak of the terminal deoxynucleotidyl transferase dUTP nick end labeling (TUNEL) staining of photoreceptors, specifically after experimental retinal detachment in rodents. So, the detection and quantification of cleaved caspase 8 can be used as a marker of photoreceptor death after experimental retinal detachment and to assess the efficacy of neuroprotective agents. As such, different concentrations of compound 2 or its vehicle, DMSO, were injected at the time of retinal detachment creation in rats, and the retinas were harvested 3 days later to assess caspase 8 activation.
Detachments were created in rats as previously outlined. In brief, rats were anesthetized with ketamine (100 mg/mL) and xylazine (20 mg/mL), and their pupils were dilated as above. […]
After washing the cells in ice-cold PBS, the cells were fixed with 4% paraformaldehyde for 20 min at room temperature followed by two PBS washes via centrifugation at 300× g for 10 min at 4 °C. […] Data were analyzed with FCS Express software (De Novo Software, Ontario, CA, USA).

## Cn1c2cc([S+](C)[O-])ccc2c2cnn(Cc3cccc(N)c3)c(=O)c21 (stereo not drawn) [Compound 2]
[1]; in presence of 500 ng/mL FasL, all concentrations tested, 8 h, versus DMSO
  caspase 8 activation: significantly decreased
[1]; no FasL, concentration near AC50 or more than 10-fold greater
  caspase 8 activity, compound alone: no significant effect
[2]
  percentage of cleaved caspase-8-positive cells in the retina: statistically significantly reduced
